Consider one substance from patent US20040249133A1, “Use of lipopeptides or lipoproteins for treating lung infections and lung tumours” (priority 2000, published 2004).

The conditions of series [1]: intraperitoneal injection of a few μg; cited from earlier work.
Series [2] has as its system rats. As to the kind of experiment: Intratracheal instillation of MALP-2 in rats, cells determined by bronchoalveolar lavage (BAL). As to conditions: 3 μg instilled into the trachea. As to the method:
1) 3 μg of MALP-2 (an S-(2,3-bisacyloxypropyl)-cysteine peptide) are instilled into the trachea of rats. At various times after treatment, cells from the lung lumen are determined by means of bronchoalveolar lavage (BAL).

In series [3] the test system is rats. As to the kind of experiment: Repeated inhalation of MALP-2 by mask in rats. The series is classed as in vivo, rat. As to conditions: 30 μg inhaled by mask, six occasions at one-week intervals.
Procedure: 2) With the aid of a mask, rats are made to inhale 30 μg doses of MALP-2 on six occasions at one-week intervals.

For the substance “MALP-2: macrophage-activating lipopeptide (an S-(2,3-bisacyloxypropyl)-cysteine peptide) isolated from Mycoplasma fermentans”, the leukocyte infiltration result in series [1] is listed as “has brought about leukocyte infiltration”. In series [2], the “adverse effect on the animals” value is listed as “not detectable”; the “duration of the increase in leukocyte number” value was “lasts for a few days”; the “food consumption, bodyweight, activity and behaviour” value was “not noteworthy”. Also, the “number of leukocytes in the respiratory tracts and the alveolar space (BAL)” value in series [2] (after a few hours) is on record as “increase in the number of leukocytes”. Also, in series [3], the “clinical condition of the animals” value is “clinically not noteworthy” and the “lymphatic tissue in the bronchial mucosa” value is “increase in the lymphatic tissue”.
